Consider 18 compounds from patent US12227520B2 (priority 2019, dated 2025).

Data set [1] relates to HIV-1 (IIIB). As to the kind of experiment: Antiviral assay in MT-4 cells (HIV MT-4 antiviral assay). The class given is cell-based. As to conditions: Human immunodeficiency virus 1, IIIB, MT4, 120 h, HIV-1 (IIIB) in MT-4 cells, 5 days incubation; read-out: EC50. In short, it runs like this:
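MT-4 cells infected with HIV-1 IIIB (1:250 diluted stock) and exposed to 1:3 serially diluted compound in RPMI with 10% FBS. Viability read by CellTiter-Glo luminescence after 5 days at 37° C; mock-infected cells and 5 μM AZT as controls.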

Data set [2] has as its system pLai RLuc reporter virus. As to the kind of experiment: microbe, parasite or virus in culture. The class given is cell-based, HIV. The note with it: Human immunodeficiency virus 1, 72 h. In short, it runs like this:
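MT-4 cells pre-infected 2 h at 37 °C with pLai RLuc virus, then exposed to 1:3 serial dilutions of compound in RPMI/10% FBS with or without 50% human serum for 72 h at 37 °C. Renilla luminescence read-out; serum shift = EC50(HS/CCM)/EC50(CCM).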

Data set [3] can be described thus: Cytotoxicity assay in MT-4 cells. The class given is cell-based, human. As to conditions: human. Put shortly:
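Infected MT-4 cells (HIV-1 IIIB, fresh 1:250 dilution of concentrated stock) or mock-infected cells exposed to compounds for 5 days at 37 °C. Viability by CellTiter-Glo luminescence; 5 μM AZT positive control, no-drug negative control. Uninfected cells used for cytotoxicity, with 10 μM puromycin as base-level cytotoxicity control.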

Setting [4] is: read-out: Antiviral Serum Shift RLuc 50% HS, HS/CCM (RPMI media, 10% FBS, 50% HS, 1% P/S), 72-h incubation.
Setting [5] is: read-out: Antiviral Serum Shift RLuc CCM, CCM (RPMI media, 10% FBS, 1% P/S), 72-h incubation.
Setting [6] is: uninfected MT-4 cells, 5 days incubation, read-out: CC50.

pEC50: −log10 of the molar value. Where two headings read alike, the source gives them in different places.

For the compound `O=C(NCc1c(F)cc(F)cc1F)c1cn2c(c(O)c1=O)C(=O)N1CCC=C[C@@H]2C1` [Example 109-1, (7R)-12-hydroxy-1,11-dioxo-N-(2,4,6-trifluorobenzyl)-1,4,7,11-tetrahydro-3H-2,7-methanopyrido[1,2-a][1,4]diazonine-10-carboxamide], the values for the pEC50 in data set [1], in data set [2] (setting [4]) and in data set [2] (setting [5]) were 8.74, 7.29 and 9.28, respectively. Moreover, the CC50 – broadly, the concentration that lowers cell viability or growth by half – at 5 days in data set [3] (setting [6]) worked out at 11300 nM.

In the case of `O=C(NCc1c(F)cc(F)cc1F)c1cn2c(c(O)c1=O)C(=O)N1CCC=C[C@H]2C1` [Example 109-2, (7S)-12-hydroxy-1,11-dioxo-N-(2,4,6-trifluorobenzyl)-1,4,7,11-tetrahydro-3H-2,7-methanopyrido[1,2-a][1,4]diazonine-10-carboxamide], the figures for the pEC50 in data set [1], in data set [2] (setting [4]) and in data set [2] (setting [5]) were 8.83, 8.36 and 9.63, respectively. The CC50 at 5 days in data set [3] (setting [6]) was 11800 nM.

As to `C[C@H]1CC(F)(F)C[C@H]2CN1C(=O)c1c(O)c(=O)c(C(=O)NCc3c(F)cc(F)cc3F)cn12` [Example 113, (3S,7S)-5,5-difluoro-12-hydroxy-3-methyl-1,11-dioxo-N-(2,4,6-trifluorobenzyl)-1,4,5,6,7,11-hexahydro-3H-2,7-methanopyrido[1,2-a][1,4]diazonine-10-carboxamide], the pEC50 in data set [1] was 8.85; in data set [2] (setting [4]), 9.21; in data set [2] (setting [5]), 9.29. Moreover, the CC50 at 5 days in data set [3] (setting [6]) amounted to 16900 nM.

With `O=C(NCc1c(F)cc(F)cc1F)c1cn2c(c(O)c1=O)C(=O)N1CCC(F)(F)C[C@H]2C1` [Example 114, (7S)-5,5-difluoro-12-hydroxy-1,11-dioxo-N-(2,4,6-trifluorobenzyl)-1,4,5,6,7,11-hexahydro-3H-2,7-methanopyrido[1,2-a][1,4]diazonine-10-carboxamide], the pEC50 in data set [1] is 8.64; in data set [2] (setting [4]), 8.98; in data set [2] (setting [5]), 9.14. The CC50 at 5 days in data set [3] (setting [6]) stood at 30500 nM.

Turning to `C[C@]1(F)CCN2C[C@H](C1)n1cc(C(=O)NCc3c(F)cc(F)cc3F)c(=O)c(O)c1C2=O` [Example 115-1, (5S,7S)-5-fluoro-12-hydroxy-5-methyl-1,11-dioxo-N-(2,4,6-trifluorobenzyl)-1,4,5,6,7,11-hexahydro-3H-2,7-methanopyrido[1,2-a][1,4]diazonine-10-carboxamide], the results for the pEC50 in data set [1], in data set [2] (setting [4]) and in data set [2] (setting [5]) were 8.83, 9.15 and 9.57, respectively. Further, the CC50 at 5 days in data set [3] (setting [6]) was determined as 12200 nM.

Take `O=C(NCc1c(F)cc(F)cc1F)c1cn2c(c(O)c1=O)C(=O)N1CCC(F)=C[C@H]2C1` [Example 121, (7S)-5-fluoro-12-hydroxy-1,11-dioxo-N-(2,4,6-trifluorobenzyl)-1,4,7,11-tetrahydro-3H-2,7-methanopyrido[1,2-a][1,4]diazonine-10-carboxamide]: the pEC50 in data set [1] was 8.75; in data set [2] (setting [4]), 9.30; in data set [2] (setting [5]), 9.63. Moreover, in data set [3] (setting [6]), the CC50 at 5 days was 24800 nM.

Take `O=C(NCc1c(F)cc(F)c(F)c1F)c1cn2c(c(O)c1=O)C(=O)N1CCCC[C@H]2C1` [Example 125, (7S)-12-hydroxy-1,11-dioxo-N-(2,3,4,6-tetrafluorobenzyl)-1,4,5,6,7,11-hexahydro-3H-2,7-methanopyrido[1,2-a][1,4]diazonine-10-carboxamide]: the values for the pEC50 in data set [1], in data set [2] (setting [4]) and in data set [2] (setting [5]) were 8.53, 8.71 and 9.48, respectively. The CC50 at 5 days in data set [3] (setting [6]) was 10200 nM.

Regarding `O=C(NCc1c(F)cc(F)cc1F)c1cn2c(c(O)c1=O)C(=O)N1C[C@@H]2CCCC12CC2` [Example 129, (7'S)-12′-hydroxy-1′,11′-dioxo-N-(2,4,6-trifluorobenzyl)-1′,4′,5′,6′,7′,11′-hexahydrospiro[cyclopropane-1,3′-[2,7]methanopyrido[1,2-a][1,4]diazonine]-10′-carboxamide], the pEC50 in data set [1] was 8.82; in data set [2] (setting [4]) it was 8.38; in data set [2] (setting [5]), 9.51. The compound also came in with a CC50 at 5 days in data set [3] (CC50) of 7440 nM.

With `CC[C@@H]1CCC[C@H]2CN1C(=O)c1c(O)c(=O)c(C(=O)NCc3c(F)cc(F)cc3F)cn12` [Example 130-1, (3R,7S)-3-ethyl-12-hydroxy-1,11-dioxo-N-(2,4,6-trifluorobenzyl)-1,4,5,6,7,11-hexahydro-3H-2,7-methanopyrido[1,2-a][1,4]diazonine-10-carboxamide], the pEC50 in data set [1] was 8.82; in data set [2] (setting [4]) it was 8.38; in data set [2] (setting [5]) it was 9.67. For the same compound, the CC50 at 5 days in data set [3] (setting [6]) is 12200 nM.

As to `O=C(NCc1c(F)cc(F)cc1F)c1cn2c(c(O)c1=O)C(=O)N1C[C@@H]2CCC[C@@H]1C(F)F` [Example 131, (3R, 7S)-3-(difluoromethyl)-12-hydroxy-1,11-dioxo-N-(2,4,6-trifluorobenzyl)-1,4,5,6,7,11-hexahydro-3H-2,7-methanopyrido[1,2-a][1,4]diazonine-10-carboxamide], the pEC50 in data set [1] is 8.77; in data set [2] (setting [4]) it was 7.96; in data set [2] (setting [5]), 9.60. Moreover, the CC50 at 5 days in data set [3] (setting [6]) was 10200 nM.

`O=C(NCc1c(F)cc(F)cc1F)c1cn2c(c(O)c1=O)C(=O)N1CCc3cc(Cl)ccc3[C@@H]2C1` [Example 136-2, (13R)-10-chloro-4-hydroxy-3,5-dioxo-N-(2,4,6-trifluorobenzyl)-3,5,8,13-tetrahydro-7H-6,13-methanobenzo[g]pyrido[1,2-a][1,4]diazonine-2-carboxamide]: the pEC50 is 8.81 in data set [1], 8.24 in data set [2] (setting [4]) and 9.41 in data set [2] (setting [5]). Moreover, the CC50 at 5 days in data set [3] (setting [6]) turned out to be 6550 nM.

In the case of `C[C@H]1CC[C@H]2CN(C1)C(=O)c1c(O)c(=O)c(C(=O)NCc3c(F)cc(F)cc3F)cn12` [Example 137-1, (4S,7S)-12-hydroxy-4-methyl-1,11-dioxo-N-(2,4,6-trifluorobenzyl)-1,4,5,6,7,11-hexahydro-3H-2,7-methanopyrido[1,2-a][1,4]diazonine-10-carboxamide], the pEC50 in data set [1] was 8.58; in data set [2] (setting [4]) it was 9.15; in data set [2] (setting [5]), 9.73. In addition, the CC50 at 5 days in data set [3] (setting [6]) was 14700 nM.

For `C[C@@H]1CC[C@H]2CN(C1)C(=O)c1c(O)c(=O)c(C(=O)NCc3c(F)cc(F)cc3F)cn12` [Example 137-2, (4R,7S)-12-hydroxy-4-methyl-1,11-dioxo-N-(2,4,6-trifluorobenzyl)-1,4,5,6,7,11-hexahydro-3H-2,7-methanopyrido[1,2-a][1,4]diazonine-10-carboxamide], the figures for the pEC50 in data set [1], in data set [2] (setting [4]) and in data set [2] (setting [5]) were 8.69, 9.09 and 9.74, respectively. Further, the CC50 at 5 days in data set [3] (setting [6]) turned out to be 20700 nM.

In the case of `O=C(NCc1c(F)cc(F)cc1F)c1cn2c(c(O)c1=O)C(=O)N1CCc3ccc(Cl)cc3[C@H]2C1` [Example 138, (13S)-11-chloro-4-hydroxy-3,5-dioxo-N-(2,4,6-trifluorobenzyl)-3,5,8,13-tetrahydro-7H-6,13-methanobenzo[g]pyrido[1,2-a][1,4]diazonine-2-carboxamide], the pEC50 in data set [1] was 8.50; in data set [2] (setting [4]), 8.06; in data set [2] (setting [5]), 9.15. Besides, the CC50 at 5 days in data set [3] (setting [6]) was determined as 5020 nM.

As to `O=C(NCc1ccc(F)c(Cl)c1F)c1cn2c(c(O)c1=O)C(=O)N1Cc3cc(F)c(F)cc3C[C@@H]2C1` [Example 139-1, (6R)—N-(3-chloro-2,4-difluorobenzyl)-9,10-difluoro-1-hydroxy-2,14-dioxo-2,7,12,14-tetrahydro-6H-6,13-methanobenzo[f]pyrido[1,2-a][1,4]diazonine-3-carboxamide], the pEC50 in data set [1] was 7.83; in data set [2] (setting [4]), 7.07; in data set [2] (setting [5]), 8.41. Further, in data set [3] (setting [6]), the CC50 at 5 days is greater than 50000 nM.

For the compound `O=C(NCc1ccc(F)cc1F)c1cn2c(c(O)c1=O)C(=O)N1CCc3cc(Cl)ccc3[C@@H]2C1` [Example 140-2, (13R)-10-chloro-N-(2,4-difluorobenzyl)-4-hydroxy-3,5-dioxo-3,5,8,13-tetrahydro-7H-6,13-methanobenzo[g]pyrido[1,2-a][1,4]diazonine-2-carboxamide], the pEC50 in data set [1] was 8.72; in data set [2] (setting [4]), 7.65; in data set [2] (setting [5]), 9.46. In addition, the CC50 at 5 days in data set [3] (setting [6]) is 5230 nM.

Regarding `O=C(NCc1c(F)cc(F)cc1F)c1cn2c(c(O)c1=O)C(=O)N1CCN(C(F)(F)F)CC2C1` (stereo not drawn) [Example 141, 12-hydroxy-1,11-dioxo-N-(2,4,6-trifluorobenzyl)-5-(trifluoromethyl)-1,4,5,6,7,11-hexahydro-3H-2,7-methanopyrido[1,2-a][1,4,7]triazonine-10-carboxamide], the figures for the pEC50 in data set [1], in data set [2] (setting [4]) and in data set [2] (setting [5]) were less than 7.00, 6.70 and 7.53, respectively. Also, the CC50 at 5 days in data set [3] (setting [6]) was greater than 50000 nM.

With `C[C@@H]1C[C@H]2CN(C(=O)c3c(O)c(=O)c(C(=O)NCc4c(F)cc(F)cc4F)cn32)[C@@H](C)C1` [Example 142-1, (3S,5S,7S)-12-hydroxy-3,5-dimethyl-1,11-dioxo-N-(2,4,6-trifluorobenzyl)-1,4,5,6,7,11-hexahydro-3H-2,7-methanopyrido[1,2-a][1,4]diazonine-10-carboxamide], the pEC50 in data set [1] was 8.71; in data set [2] (setting [4]), 8.93; in data set [2] (setting [5]), 9.45. Further, the CC50 at 5 days in data set [3] (setting [6]) was 8420 nM.
